We go through 2 compounds from patent US8557776B2, “Compounds and methods for 18F labeled agents” (Bayer Pharma AG, priority 2006, dated 2013).

Data set [1] concerns human prostate cancer PC-3. In words: Biodistribution of F-18-Bombesin Analog in nude mice bearing human prostate cancer PC-3. The class given is in vivo.
Procedure: Nude mice bearing human prostate cancer PC-3 were injected with 100 μl radioactive peptide dissolved in PBS containing 135 kBq per animal. For blocking 100 μg unlabeled gastrin-releasing peptide was co-injected. One hour post injection the animals were sacrificed and organs dissected for counting in a gamma-counter. Values are expressed as percent of the injected dose per gram organ weight.

*1 amine or outer side, *2 acyl side, *3 side chain or, on linkers, in order; H or OH if unused. Where a SMILES comes first, the peptide text is derived from it. [ ]: non-standard residue; d: D form. The star is where a group is joined. γ4hIle = CC[C@H](C)[C@@H](CCC(=O)[*:2])N[*:1]; Benzoyl(3-CN,4-F) = N#Cc1cc(C(=O)*)ccc1F; Ava = NCCCCC(=O)O

For the compound “3-CF3,4-F-Benzoyl-Arg-Ava-Gln-Trp-Ala-Val-NMeGly-His-Sta-Leu-NH2 (SEQ ID NO: 421) (RXQWAVGHXL; 3-CF3,4-F-benzoyl N-cap, Ava, NMeGly, Sta, C-amide)”, the Panc. % in the data set “Table 1” is listed as 1,42%.
Turning to `CC[C@H](C)[C@@H](CCC(=O)N[C@@H](CC(C)C)C(N)=O)NC(=O)[C@H](Cc1c[nH]cn1)NC(=O)CNC(=O)[C@@H](NC(=O)[C@H](C)NC(=O)[C@H](Cc1c[nH]c2ccccc12)NC(=O)[C@H](CCC(N)=O)NC(=O)CCCCNC(=O)c1ccc(F)c(C#N)c1)C(C)C` [F-18-Bombesin Analog] ({Benzoyl(3-CN,4-F)-Ava}-QWAVGH[γ4hIle]L-NH2; N-terminus assumed), the “Tumor/Tissue-Ratios T/Blood” value was found to be 1.57 ± 0.22 in data set [1] (1 h Blocking: 100 μg unlabeled gastrin-releasing peptide co-injected) and 21.03 ± 11.92 in data set [1] (1 h post injection). Further, in data set [1] (FIG. 8, protocol as above), the “tumor-tissue ratio relative to that of 18F-choline (FCH) and 18F-FB-Lys-BN” value is 2.5 time higher. Moreover, the “accumulation in tumor (in words)” value in data set [1] (PC-3 tumor, 1 h post injection) was “accumulates in tumor”. In addition, the “specificity of targeting (in words)” value in data set [1] (blocking values low in tumor on co-injection of gastrin-releasing peptide) is reported as “specific”.
